Assay results reported in US9315494B2, “Alkyl-amide-substituted pyridyl compounds useful as modulators of IL-12, IL-23 and/or IFNα responses” (Bristol-Myers Squibb Company, priority 2012, dated 2016).
Read-outs that look alike come from different tables or passages of the source.

Tests used:
[1] = tested on: IL-23-stimulated STAT-dependent luciferase reporter in Kit225 T cells; assay: Kit225 T cell assay, IL-23 stimulated STAT-dependent luciferase reporter; assay type: cell-based, human
Experimental: (§1) Kit225 T cells with a stably-integrated STAT-dependent luciferase reporter were plated in RPMI (Gibco) containing 10% heat-inactivated FBS (Gibco) and 100 U/mL PenStrep (Gibco). The cells were then stimulated with either 20 ng/mL human recombinant IL-23 or 200 U/mL human recombinant IFNα (PBL InterferonSource) for 5-6 hours. Luciferase expression was measured using the STEADY-GLO® Luciferase Assay System (Promega) according to the manufacturer's instructions.

[2] = tested on: IFNα-stimulated STAT-dependent luciferase reporter in Kit225 T cells; assay: Kit225 T cell assay, IFNα stimulated STAT-dependent luciferase reporter; assay type: cell-based, human
Experimental: as §1

[3] = Kit225 T cells, 20 ng/mL human recombinant IL-23, 5-6 hours, luciferase, read-out: IL23 (Kit225 T Cell Inhibition Data)
[4] = Kit225 T cells, 200 U/mL human recombinant IFNα, 5-6 hours, luciferase, read-out: IFNα (Kit225 T Cell Inhibition Data)
[5] = Homo sapiens, KIT225, read-out: IL23 (Kit225 T Cell Inhibition Data)
[6] = Homo sapiens, KIT225, read-out: IFNα (Kit225 T Cell Inhibition Data)

Row | Structure (SMILES) | IC50 [1, 3] | IC50 [2, 4] | IC50 [1, 5] | IC50 [2, 6]
1 | CNC(=O)c1cnc(Nc2cc(C)c(F)cn2)cc1Nc1cccc(C(=O)Nc2ccccc2)c1OC [Example 328] | 600 nM | 120 nM |  | 
2 | CNC(=O)c1cnc(Nc2ccc(C)cn2)cc1Nc1ccc(F)cc1OC [Example 159] | 1150 nM | 1400 nM |  | 
3 | CNC(=O)c1cnc(Nc2ccn(C(C)C)n2)cc1Nc1cc(F)cc(F)c1OC [Example 408] | 680 nM | 430 nM |  | 
4 | CNC(=O)c1cnc(Nc2ccc(C#N)c(C)n2)cc1Nc1ccc(Cl)cc1OC [Example 118] | 1160 nM | 570 nM |  | 
5 | CNC(=O)c1cnc(Nc2cc(C#N)ccn2)cc1Nc1cc(F)ccc1S(C)(=O)=O [Example 58] | 220 nM | 140 nM |  | 
6 | CCOc1ccccc1Nc1cc(Nc2ccc(N3CCOCC3)cn2)ncc1C(=O)NC [Example 223] | 386 nM | 190 nM |  | 
7 | CNC(=O)c1ccnc(Nc2cc(Nc3ccc(Cl)cc3OC)c(C(=O)NC)cn2)c1 [Example 254] | 488 nM | 310 nM |  | 
8 | CNC(=O)c1cnc(Nc2cccc(OC)n2)cc1Nc1ccc(F)cc1OC [Example 154] | 784 nM | 560 nM |  | 
9 | CNC(=O)c1cnc(Nc2cccc(C#N)n2)cc1Nc1ccccc1S(C)(=O)=O [Example 27] | 376 nM | 180 nM |  | 
10 | CNC(=O)c1cnc(Nc2cc(C(=O)N3CCCC3)ccn2)cc1Nc1cc(F)cc(F)c1OC [Example 270] | 221 nM | 170 nM |  | 
11 | CNC(=O)c1cnc(Nc2cc(C(N)=O)ccn2)cc1Nc1cc(F)cc(F)c1OC [Example 264] | 542 nM | 350 nM |  | 
12 | CNC(=O)c1cnc(Nc2ccc(-n3ccccc3=O)cn2)cc1Nc1ccc(Cl)cc1OC [Example 98] | 480 nM | 280 nM |  | 
13 | CNC(=O)c1cnc(Nc2ccc(F)cn2)cc1Nc1ccc(C(=O)N2CCCC2)cc1 [Example 200] | 904 nM | 1300 nM |  | 
14 | CCc1ncccc1Nc1cc(Nc2cc(C)nc(C)n2)ncc1C(=O)NC [Example 402] | 250 nM | 330 nM |  | 
15 | CNC(=O)c1cnc(Nc2cc(OC)ccn2)cc1Nc1cc(F)cc(F)c1OC [Example 169] | 352 nM | 440 nM |  | 
16 | CNC(=O)c1cnc(Nc2cccc(-c3ccccc3)n2)cc1Nc1ccc(F)cc1OC [Example 150] | 2700 nM | 1520 nM |  | 
17 | CNC(=O)c1cnc(Nc2ccc(F)cn2)cc1Nc1ccc(F)cc1S(C)(=O)=O [Example 13] | 257 nM | 120 nM |  | 
18 | CNC(=O)c1cnc(Nc2cc(C)c(F)cn2)cc1Nc1cccc(C(=O)NCC(C)(C)C)c1OC [Example 340] | 220 nM | 120 nM |  | 
19 | CNC(=O)c1cnc(Nc2ccc(Cl)cn2)cc1Nc1ccc(F)cc1OC [Example 158] | 4440 nM | 2100 nM |  | 
20 | CNC(=O)c1cnc(Nc2ccccn2)cc1Nc1ccc(F)cc1S(C)(=O)=O [Example 10] | 218 nM | 120 nM |  | 
21 | CNC(=O)c1cnc(Nc2ccc(F)cn2)cc1Nc1ccc(C(=O)NC2CC2)cc1S(C)(=O)=O [Example 309] | 1920 nM | 630 nM |  | 

Row | Structure (SMILES) | IC50 [1, 3] | IC50 [2, 4] | IC50 [1, 5] | IC50 [2, 6]
22 | CNC(=O)c1cnc(Nc2cccnn2)cc1Nc1ccccc1S(C)(=O)=O [Example 36] | 1310 nM | 700 nM |  | 
23 | CNC(=O)c1cnc(Nc2ccc(N3C(=O)COCC3C)cn2)cc1Nc1ccc(Cl)cc1OC (centres unmarked) [Example 102] | 368 nM | 150 nM |  | 
24 | CNC(=O)c1cnc(Nc2cc(C(N)=O)ccn2)cc1Nc1ccc(F)cc1OC [Example 267] | 2640 nM | 1830 nM |  | 
25 | CNC(=O)c1cnc(Nc2cccc(-c3ccccc3)n2)cc1Nc1ccccc1C(N)=O [Example 77] | 538 nM | 350 nM |  | 
26 | CNC(=O)c1cnc(Nc2cc(-c3ccccc3)ccn2)cc1Nc1ccccc1C(N)=O [Example 75] | 2030 nM | 1730 nM |  | 
27 | CNC(=O)c1cnc(Nc2cccc(C(F)(F)F)n2)cc1Nc1ccccc1C(N)=O [Example 95] | 960 nM | 680 nM |  | 
28 | CNC(=O)c1cnc(Nc2ccccn2)cc1Nc1ccccc1S(=O)(=O)C(F)(F)F [Example 29] | 7110 nM | 7980 nM |  | 
29 | CNC(=O)c1cnc(Nc2ccc(F)cn2)cc1Nc1ccc(C#N)cc1S(C)(=O)=O [Example 310] |  |  | 1080 nM | 590 nM
30 | CNC(=O)c1cnc(Nc2cc(F)ccn2)cc1Nc1ccc(F)cc1OC [Example 149] | 1190 nM | 330 nM |  | 
31 | CNC(=O)c1cnc(Nc2ccc(F)cn2)cc1Nc1ccc(CCO)cc1 [Example 191] | 3070 nM | 3580 nM |  | 
32 | CCN(CC)CCCNc1cc(Nc2cc(Nc3ccccc3S(C)(=O)=O)c(C(=O)NC)cn2)nc(C)n1 [Example 423] | 380 nM | 370 nM |  | 
33 | CNC(=O)c1cnc(Nc2ccc(OC)cn2)cc1Nc1ccccc1C(N)=O [Example 70] | 820 nM | 730 nM |  | 
34 | CNC(=O)c1cnc(Nc2cc(C)c(F)cn2)cc1Nc1cccc(-c2ncnn2C)c1OC [Example 385] |  |  | 70 nM | 20 nM
35 | CNC(=O)c1cnc(Nc2ccncn2)cc1Nc1ccccc1S(C)(=O)=O [Example 37] | 690 nM | 1150 nM |  | 
36 | CNC(=O)c1cnc(Nc2ccc(F)cn2)cc1Nc1ccc(OC)cc1 [Example 195] | 3130 nM | 3520 nM |  | 
37 | CNC(=O)c1cnc(Nc2cc(C)c(F)cn2)cc1Nc1cccc(C(=O)NCC2CCC2)c1OC [Example 332] | 380 nM | 130 nM |  | 
38 | CNC(=O)c1cnc(Nc2cc3ccccc3cn2)cc1Nc1ccc(F)cc1OC [Example 146] | 2160 nM | 1450 nM |  | 
39 | CNC(=O)c1cnc(Nc2ccc(F)cn2)cc1Nc1ccc(C(=O)N2CCOCC2)cc1OC [Example 241] | 902 nM | 500 nM |  | 
40 | CCc1cccc(Nc2cc(Nc3cc(F)cc(F)c3OC)c(C(=O)NC)cn2)n1 [Example 141] | 401 nM | 350 nM |  | 
41 | CNC(=O)c1cnc(Nc2cc(C)ccn2)cc1Nc1ccccc1C(N)=O [Example 78] | 388 nM | 120 nM |  | 
42 | CNC(=O)c1cnc(Nc2ccc(F)cn2)cc1Nc1ccccc1SC(F)(F)F [Example 210] | 1680 nM | 860 nM |  | 

Now from value to compound, other results behind:

Row | IC50 [1, 3] | IC50 [2, 4] | Structure (SMILES) | IC50 [1, 5] | IC50 [2, 6]
43 | 108 nM | 80 nM | CNC(=O)c1cnc(Nc2cc(OC)ccn2)cc1Nc1ccccc1S(C)(=O)=O [Example 15] |  | 
44 | 30 nM | 50 nM | CNC(=O)c1cnc(Nc2ccc(N3CCCCC3)cn2)cc1Nc1ccccc1S(C)(=O)=O [Example 435] |  | 
45 | 20 nM | 10 nM | CNC(=O)c1cnc(Nc2cc(C)c(F)cn2)cc1Nc1cccc(-c2nnc(C)o2)c1OC [Example 359] |  | 
46 | 60 nM | 40 nM | CNC(=O)c1cnc(Nc2cc(C)c(F)cn2)cc1Nc1cccc(C(=O)NCC(O)c2ccccc2)c1OC (centres unmarked) [Example 331] |  | 
47 | 170 nM | 350 nM | CNC(=O)c1cnc(Nc2cc(OC)ncn2)cc1Nc1ccccc1S(C)(=O)=O [Example 419] |  | 
48 | 143 nM | 60 nM | CNC(=O)c1cnc(Nc2ccccn2)cc1Nc1ccc(OC)cc1S(C)(=O)=O [Example 8] |  | 
49 | 50 nM | 20 nM | CNC(=O)c1cnc(Nc2cc(C)c(F)cn2)cc1Nc1cccc(-c2ncn(C)n2)c1OC(F)F [Example 388] |  | 
50 | 30 nM | 20 nM | CNC(=O)c1cnc(Nc2cc(C)c(F)cn2)cc1Nc1ccccc1S(C)(=O)=O [Example 432] |  | 
51 | 35.2 nM | 40 nM | CNC(=O)c1cnc(Nc2cccc(OC)n2)cc1Nc1ccccc1S(C)(=O)=O [Example 24] |  | 
52 | 190 nM | 70 nM | CNC(=O)c1cnc(Nc2cc(C)c(F)cn2)cc1Nc1cccc(C(=O)NCC(C)(C)O)c1OC [Example 347] |  | 
53 | 50 nM | 20 nM | CNC(=O)c1cnc(Nc2cc(C)cc(C)n2)cc1Nc1ccccc1S(C)(=O)=O [Example 443] |  | 
54 | 130 nM | 130 nM | CNC(=O)c1cnc(Nc2cc(C)c(F)cn2)cc1Nc1cccc(C(=O)NC2CC2)c1OC [Example 318] |  | 
55 | 200 nM | 160 nM | CNC(=O)c1cnc(Nc2cc(C)c(C#N)cn2)cc1Nc1ccccc1S(C)(=O)=O [Example 447] |  | 
56 | 61.4 nM | 70 nM | CNC(=O)c1cnc(Nc2ccccn2)cc1Nc1ccccc1S(C)(=O)=O [Example 3] |  | 
57 | 161 nM | 60 nM | CNC(=O)c1cnc(Nc2ccc(F)cn2)cc1Nc1ccc(Cl)cc1S(C)(=O)=O [Example 11] |  | 
58 | 150 nM | 130 nM | CNC(=O)c1cnc(Nc2cc(C)c(F)cn2)cc1Nc1cccc(C(=O)NCC2(C#N)CC2)c1OC [Example 354] |  | 
59 | 180 nM | 100 nM | CNC(=O)c1cnc(Nc2cccc(C(F)(F)F)n2)cc1Nc1ccccc1S(C)(=O)=O [Example 16] |  | 
60 | 40 nM | 30 nM | CNC(=O)c1cnc(Nc2cc(C)nc(C)n2)cc1Nc1cccc(-c2ncn(CC(F)(F)F)n2)c1OC [Example 380] |  | 
61 | 130 nM | 170 nM | CNC(=O)c1cnc(Nc2ccc(F)cn2)cc1Nc1cc(F)ccc1S(C)(=O)=O [Example 55] |  | 
62 | 210 nM | 110 nM | CNC(=O)c1cnc(Nc2ccc(F)cn2)cc1Nc1cccc(C(=O)NC2CC2)c1OC [Example 317] |  | 
63 | 200 nM | 90 nM | CNC(=O)c1cnc(Nc2cc(C)ccn2)cc1Nc1ccc(F)cc1S(C)(=O)=O [Example 52] |  | 
64 | 160 nM | 140 nM | CNC(=O)c1cnc(Nc2cc(C)c(F)cn2)cc1Nc1cccc(C(=O)NCC2(C)COC2)c1OC [Example 343] |  | 
